Measured values as given in patent US20220145406A1, “BIOMARKERS, AND USES IN TREATMENT OF VIRAL INFECTIONS, INFLAMMATIONS, OR CANCER” (ABIVAX, priority 2018, published 2022).

Tested on: CD4+ T cells
Assay: RNAseq differential gene expression
Assay type: cell-based, human
Description: All statistical analyses and plots were done with R software v3.5. For normalization and processing, we used edgeR v3.22.1, EDASeq v2.14 and DESeq2 v1.20. We decided to use counts per million (CPM) over transcripts per million (TPM) mainly because TPM discards a lot of information about the original count sizes and thus would have produced too much noise for differential testing. The first step was to filter the data. We considered a gene to be expressed at a reasonable level in a sample if it had at least five counts for each million mapped reads in that sample. For marker selection, we used a type 1^(*) error α threshold set to 5%. enabling a highly flexible approach to the differential analyses despite the lack of replicates. For the same reason, the log2 fold change cutoff was set to 1.5 for both positive and negative values, and the cutoff p-value was typically ≤0.05. Those appropriate cutoffs allowed us to identify differentially expressed genes. The false discovery rate (FDR) values were computed for illustration purposes but were not taken into account in the decision due to the lack of replicates. The first methodology choice was Benjamini and Hochberg. This procedure provides less stringent control of type 1 errors compared to familywise error rate (FWER) procedures (such as the Bonferroni correction). We added an MDS plot for the data with R and edgeR package. The MDS plot produces a plot in which distances between samples correspond to the leading biological coefficient of variation (BCV) between those samples. […] We also produced several volcano plots with R and the EDASeq package. These plots were a good representation of the differential expression (DE) testing in the RNA-Seq experiments. […] The green points highlighted are markers that satisfied our selection criteria (significant in both p-value and log2FC). The yellow points highlighted are genes that satisfied the log2FC criterion but failed the p-value criterion. We retained these points to investigate further even though they had no decisional value.
A full-detailed report describing the complete analysis was submitted to Gene Expression Omnibus (GEO, https://www.ncbi.nlm.nih.gov/geo/query/acc.cgi?acc=GSE116073). Total RNA extraction was performed according to the Qiagen miRNeasy □ kit. RNA concentrations were determined using Qubit[…] fluorometric quantification and purity by the RNA 6000 Bioanalyzer kit (Agilent). RNA-Seq libraries were constructed with the TruSeq stranded mRNA sample preparation (low-throughput protocol) kit from Illumina, according to the manufacturer's instructions. Aliquots of 1.2 μg of total RNA were used for the construction of the libraries. The final cDNA libraries were validated with a Fragment Analyzer (Advanced Analytical, Ankeny, Iowa) and quantified with a KAPA qPCR kit (Kapa Biosystems, Wilmington, Mass.). On the 8 sequencing lanes of a flow cell V4, the 32 libraries were pooled in equal proportions by sets of 4 libraries per lane, denatured with NaOH and diluted to […] before clustering. Cluster formation and primer hybridization and single-end read, 50-cycle sequencing were performed on the cBot and HiSeq 2500 (Illumina, San Diego, Calif.), respectively. Image analysis and base calling were performed using the HiSeq Control Software with the Real-Time Analysis component. Demultiplexing was performed using Illumina's sequencing analysis software. The quality of the data was assessed using FastQC from the Babraham Institute and the Illumina software SAV (Sequence Analysis Viewer). Potential contaminants were investigated with the FastQ Screen software from the Babraham Institute.
In the data preprocessing step, the HiSeq control and real-time analysis software generates image analysis, base calling, and base call quality automatically in real time. “Dirty” raw reads were defined as reads that contained adaptor sequence or high content of unknown bases and low-quality reads. […]

[1] = ABX464_I_vs_DMSO_I, infected CD4 T cells
[2] = ABX464_NI_vs_DMSO_NI, uninfected CD4 T cells
[3] = uninfected CD4+ T cells, ABX464 vs untreated

SMILES: FC(F)(F)Oc1ccc(Nc2ccc3cccc(Cl)c3n2)cc1 [ABX464, 8-chloro-N-(4-(trifluoromethoxy)phenyl)quinolin-2-amine]
- FC CECR1 [1]: 3.412
- FC DPF2 [1]: 3.071
- FC LARS2 [1]: 2.991
- FC LGALS3 [1]: 3.009
- FC NBPF20 [1]: 8.164
- FC NOP9 [1]: 3.02
- FC SCML1 [1]: 7.214
- FC TOR1AIP2 [1]: 14.39
- log2(FC) CECR1 [1]: 1.771
- log2(FC) DPF2 [1]: 1.619
- log2(FC) LARS2 [1]: 1.58
- log2(FC) LGALS3 [1]: 1.589
- log2(FC) NBPF20 [1]: 3.029
- log2(FC) NOP9 [1]: 1.594
- log2(FC) SCML1 [1]: 2.851
- log2(FC) TOR1AIP2 [1]: 3.847
- FC CECR1 [2]: 3.587
- FC DPF2 [2]: 2.95
- FC HELLS [2]: 0.2107
- FC HIST1H1D [2]: 0.3392
- FC HOPX [2]: 3.35
- FC LARS2 [2]: 2.99
- FC MZT2B [2]: 0.3168
- FC NDUFB7 [2]: 0.3486
- FC RPS19BP1 [2]: 0.3377
- FC SCML1 [2]: 9.378
- FC SNORD3A [2]: 0.1318
- FC TOR1AIP2 [2]: 11.2
- log2(FC) CECR1 [2]: 1.843
- log2(FC) DPF2 [2]: 1.561
- log2(FC) HELLS [2]: −2.246
- log2(FC) HIST1H1D [2]: −1.56
- log2(FC) HOPX [2]: 1.744
- log2(FC) LARS2 [2]: 1.58
- log2(FC) MZT2B [2]: −1.658
- log2(FC) NDUFB7 [2]: −1.52
- log2(FC) RPS19BP1 [2]: −1.566
- log2(FC) SCML1 [2]: 3.229
- log2(FC) SNORD3A [2]: −2.924
- log2(FC) TOR1AIP2 [2]: 3.486
- number of upregulated genes (infected CD4+ T cells, ABX464 vs untreated): 9 genes
- number of downregulated genes (infected CD4+ T cells, ABX464 vs untreated (FIG. 2E legend)): 6 genes
- number of downregulated genes [3]: 6 genes
- number of upregulated genes [3]: 7 genes
